Our source for the Emax and EC50 values is US20260200926A1, “TREM2 MODULATORS” (Muna Therapeutics ApS, priority 2022, published 2026).

A value given as a limit tells only on which side of the number the result lay.

The target in this assay is T1, Human TREM2 (Homo sapiens, UniProt Q9NZC2).
T1 construct: expressed in transfected cells
The assay can be described thus: Human TREM2 activity: cellular phosphorylation of Syk (AlphaLISA SureFire Ultra p-SYK) in HEK293/DAP12+TREM2 stable cell line. The assay is classed as cell-based. The following applies: for Emax: HEK293, maximal response relative to reference agonist example 1B (remaining examples), read-out: Emax; for EC50: phospho-Syk AlphaLISA signal, HEK293/DAP12+TREM2 cells, concentration giving 50% of maximal response, read-out: EC50. In outline:
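HEK293 cells stably co-expressing human TREM2 and DAP12 were seeded at 10,000 cells/well and used 20–24 h later. Compounds were tested at 8 concentrations (top 100 μM, 1:6 steps, 0.5% DMSO) for 30 min at 37 °C. Syk phosphorylation at Tyr525/526 was read in lysates by AlphaLISA SureFire Ultra.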
In general terms: Bead proximity is the source of the signal in Alpha formats.

T1 sequence (Q9NZC2 19-230): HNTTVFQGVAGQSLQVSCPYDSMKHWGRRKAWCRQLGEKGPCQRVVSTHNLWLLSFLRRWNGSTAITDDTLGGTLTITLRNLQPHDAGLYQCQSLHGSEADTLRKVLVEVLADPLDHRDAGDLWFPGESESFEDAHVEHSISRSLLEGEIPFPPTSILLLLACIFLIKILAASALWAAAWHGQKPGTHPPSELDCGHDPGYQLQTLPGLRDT
T1 sequence (O43914 22-113 partner): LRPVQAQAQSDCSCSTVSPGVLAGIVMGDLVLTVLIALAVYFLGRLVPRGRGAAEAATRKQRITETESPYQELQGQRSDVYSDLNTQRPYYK

Regarding `Cc1nc2c(-c3ccc(Cl)cc3F)nc(N3CCN(CC(F)F)C(c4cnn(C)c4)C3)nc2c(=O)n1C` (stereo not drawn) [Example 32, 8-(4-chloro-2-fluorophenyl)-6-(4-(2,2-difluoroethyl)-3-(1-methyl-1H-pyrazol-4-yl)piperazin-1-yl)-2,3-dimethylpyrimido[5,4-d]pyrimidin-4(3H)-one], the Emax (commonly the greatest response seen or fitted, relative to the assay's reference) is less than 75% and the EC50 (as a rule, the concentration that produces a half-maximal response) is 10 to 100 nM.

For `Cc1nc2c(-c3cc(F)c(F)cc3F)nc([C@@H]3CCO[C@H](c4cnn(C)c4)C3)nc2c(=O)n1C` (single isomer, unassigned) [Example 38A], the Emax was less than 75% and the EC50 fell in the range of 100 to 1000 nM.

With `Cc1cc([C@@H]2C[C@H](c3cc4c(=O)n(C)c(C)nc4c(-c4ccc(C(F)(F)F)cc4F)n3)CCO2)ccn1` (single isomer, unassigned) [Example 168A], the Emax was less than 75% and the concentration for a half-maximal effect (EC50) lay in the range of 100 to 1000 nM.

Turning to `Cc1nc2c(-c3ccc(Cl)cc3F)nc(N3CCOC(c4ncc[nH]4)C3)nc2c(=O)n1C` (stereo not drawn) [Example 81, 6-(2-(1H-imidazol-2-yl)morpholino)-8-(4-chloro-2-fluorophenyl)-2,3-dimethylpyrimido[5,4-d]pyrimidin-4(3H)-one], the Emax was less than 75% and the EC50 is greater than 1000 nM.

With `Cc1cc([C@@H]2CN(c3cc4c(=O)n(C)c(C)nc4c(-c4ccc(F)cc4F)n3)CC(F)(F)O2)ccn1` (single isomer, unassigned) [Example 171A], the Emax was greater than 110% and the EC50 was 1 to 10 nM.

As for `Cc1nnc(C2CN(c3nc(-c4ccc(Cl)cc4F)c4nc(C)n(C)c(=O)c4n3)CCO2)o1` (stereo not drawn) [Example 43, 8-(4-chloro-2-fluorophenyl)-2,3-dimethyl-6-(2-(5-methyl-1,3,4-oxadiazol-2-yl)morpholino)pyrimido[5,4-d]pyrimidin-4(3H)-one], the Emax was less than 75% and the EC50 was in the range of 10 to 100 nM.

On to `Cc1nc2c(-c3cc(F)c(F)c(F)c3)nc(N3CCOC(c4cnn(C)c4)C3)nc2c(=O)n1C` (stereo not drawn) [Example 8, 2,3-dimethyl-6-(2-(1-methyl-1H-pyrazol-4-yl)morpholino)-8-(3,4,5-trifluorophenyl)pyrimido[5,4-d]pyrimidin-4(3H)-one], for which the Emax was less than 75% and the EC50 was 100 to 1000 nM.

With `Cc1nc2c(-c3ccc(Cl)cc3F)nc(N3CCOC(c4cc[nH]n4)C3)nc2c(=O)n1C` (stereo not drawn) [Example 47, 6-(2-(1H-pyrazol-3-yl)morpholino)-8-(4-chloro-2-fluorophenyl)-2,3-dimethylpyrimido[5,4-d]pyrimidin-4(3H)-one], the Emax is less than 75% and the EC50 lay within 100 to 1000 nM.

Take `Cc1cc([C@@H]2CN(c3cc4c(=O)n(C)c(C)nc4c(-c4ccc(F)cc4F)n3)CCO2)ccn1` (single isomer, unassigned) [Example 136A]: the Emax was 75 to 110% and the EC50 lay within 1 to 10 nM.

As for `Cc1cc([C@@H]2CN(c3cc4c(=O)n(C)c(C)nc4c(-c4ccc(Cl)cc4F)n3)CC(C)(C)O2)ccn1` (single isomer, unassigned) [Example 172A], the maximal response (Emax) is less than 75% and the EC50 fell in the range of 100 to 1000 nM.

In the case of `Cc1n[nH]c(C2CN(c3nc(-c4ccc(Cl)cc4F)c4nc(C)n(C)c(=O)c4n3)CCO2)n1` (stereo not drawn) [Example 46, 8-(4-chloro-2-fluorophenyl)-2,3-dimethyl-6-(2-(3-methyl-1H-1,2,4-triazol-5-yl)morpholino)pyrimido[5,4-d]pyrimidin-4(3H)-one], the Emax was less than 75% and the half-maximal effective concentration (EC50) lay in the range of 100 to 1000 nM.

Consider `Cc1nc2c(-c3ccc(Cl)cc3F)nc(N3CCOC(c4cnn(C5COC5)c4)C3)nc2c(=O)n1C` (stereo not drawn) [Example 40, 8-(4-chloro-2-fluorophenyl)-2,3-dimethyl-6-(2-(1-(oxetan-3-yl)-1H-pyrazol-4-yl)morpholino)pyrimido[5,4-d]pyrimidin-4 (3H)-one], for which the Emax fell in the range of 75 to 110% and the EC50 lay in the range of 10 to 100 nM.

For `Cc1cc([C@@H]2CN(c3cc4c(=O)n(C)c(C)nc4c(-c4ccc(C(F)(F)F)nc4)n3)C[C@H](C)O2)ccn1` (single isomer, unassigned) [Example 199A], the Emax is less than 75% and the EC50 fell in the range of 10 to 100 nM.

As for `Cc1nc2c(-c3ccc(Cl)cc3F)nc(N3CCOC(CN(C)C)C3)nc2c(=O)n1C` (stereo not drawn) [Example 53, 8-(4-chloro-2-fluorophenyl)-6-(2-((dimethylamino)methyl)morpholino)-2,3-dimethylpyrimido[5,4-d]pyrimidin-4(3H)-one], the Emax was in the range of 75 to 110% and the EC50 was in the range of 100 to 1000 nM.

Turning to `Cc1nc2c(-c3ccc(Cl)cc3F)nc(N3CCO[C@@H](c4cnn(C5CC5)c4)C3)nc2c(=O)n1C` (single isomer, unassigned) [Example 26B], the Emax lay in the range of 75 to 110% and the EC50 is 1 to 10 nM.

For `Cc1nc2c(-c3ccc(C(F)(F)F)cc3F)nc(N3CCO[C@@H](c4cnn(C)c4)C3)cc2c(=O)n1C` (single isomer, unassigned) [Example 126A], the Emax was in the range of 75 to 110% and the EC50 lay in the range of 1 to 10 nM.

`Cc1cc([C@@H]2CN(c3nc(-c4ccc(C(F)(F)F)cc4F)c4nc(C)n(C)c(=O)c4n3)CCO2)ccn1` (single isomer, unassigned) [Example 21A]: the Emax lay within 75 to 110% and the EC50 was in the range of 10 to 100 nM.

On to `Cc1nc2c(-c3ccc(Cl)cc3F)nc([C@H]3CCO[C@@H](c4cnn(C5CC5)c4)C3)nc2c(=O)n1C` (single isomer, unassigned) [Example 24B], for which the Emax was less than 75% and the EC50 was 100 to 1000 nM.

Turning to `Cc1nc2c(-c3ccc(C(F)(F)F)cc3F)cc([C@@H]3CCO[C@H](c4cnn(C5CC5)c4)C3)cc2c(=O)n1C` (single isomer, unassigned) [Example 118A], the Emax fell in the range of 75 to 110% and the EC50 was 10 to 100 nM.

On to `Cc1nc2c(-c3ccc(C(F)(F)F)cc3C#N)nc(N3C[C@@H](c4cnn(C5CC5)c4)O[C@@H](C)C3)cc2c(=O)n1C` (single isomer, unassigned) [Example 202A], for which the Emax was less than 75% and the EC50 was greater than 1000 nM.

On to `Cc1nc2c(-c3ccc(C(F)(F)F)nc3)nc(N3CCO[C@@H](c4cnn(C)c4)C3)nc2c(=O)n1C` (single isomer, unassigned) [Example 28B], for which the Emax is 75 to 110% and the EC50 lay within 10 to 100 nM.

`COc1ccc(Cn2c(C)nc3c(-c4ccc(Cl)cc4F)nc(N4CCOC(c5cnn(C)c5)C4)nc3c2=O)cc1` (stereo not drawn) [Example 59, 8-(4-chloro-2-fluorophenyl)-3-(4-methoxybenzyl)-2-methyl-6-(2-(1-methyl-1H-pyrazol-4-yl)morpholino)pyrimido[5,4-d]pyrimidin-4(3H)-one]: the Emax was in the range of 75 to 110% and the EC50 was 100 to 1000 nM.

`Cc1cc([C@H]2CN(c3nc(-c4ccc(F)cc4F)c4nc(C)n(C)c(=O)c4n3)CC(F)(F)O2)ccn1` (single isomer, unassigned) [Example 169B]: the maximal response (Emax) was 75 to 110% and the EC50 was in the range of 10 to 100 nM.

As for `Cc1nc2c(-c3ccc(Cl)cc3C#N)nc(N3CC(C)OC(c4cnn(C5CC5)c4)C3)cc2c(=O)n1C` (stereo not drawn) [Example 198, 5-chloro-2-(6-(2-(1-cyclopropyl-1H-pyrazol-4-yl)-6-methylmorpholino)-2,3-dimethyl-4-oxo-3,4-dihydropyrido[3,4-d]pyrimidin-8-yl)benzonitrile], the Emax is less than 75% and the EC50 was greater than 1000 nM.
